According to paper PMC4116524, “A virtual screen identified C96 as a novel inhibitor of phosphatidylinositol 3-kinase that displays potent preclinical activity against multiple myeloma in vitro and in vivo” (Oncotarget, 2014):
Values joined by “and” are separate entries in the source; they are usually repeats but may differ in a detail not shown here. Equal entries are not always repeated.

What was measured:
Format in all cases: cell-based
[1] = test system: OPM2 cells; assay: Flow cytometric analysis of apoptosis (Annexin V-FITC/PI); conditions: OPM2, C96 10 μM, 24 hrs; two quadrant values
Experimental: (§1) MM cells treaded with C96 at concentrations from 0 to 20 μM, 24 hrs later, cells were stained with Annexin V-FITC and PI according to the manufacturer's instruction (Sigma, St Louis, MO). Apoptotic cells were measured on a flow cytometer (FACSCalibur, Becton Dickinson) as reported as previously.

[2] = test system: RPMI-8226 (8226) cells; assay: as above; conditions: 8226, C96 10 μM, 24 hrs; two quadrant values
Experimental: as §1

[3] = test system: KMS11 cells; assay: as above; conditions: KMS11, C96 10 μM, 24 hrs; two quadrant values
Experimental: as §1

[4] = test system: MM cell lines LP1, OPM2, JJN3, OCI-My5, RPMI-8226, U266, KMS11; assay: Growth inhibition assay (MTT); conditions: panel of MM cell lines, within 72 hrs
Experimental: MM cells were dispensed in 96-well plates at a density of 8×10^3 cells per well and treated with increasing concentrations of C96 for 72 hrs, and the growth inhibitory effect of C96 on MM cells was assessed by an MTT assay as reported previously. To show the effect of C96 on cell growth in the presence of growth factor IGF-1, MM cells were first maintained in IMDM media containing 0.5% FBS for 12 hrs, followed by C96 treatment alone or in combination with 100 ng/mL of IGF-1. Cells were then incubated for another 24 hrs, relative cell proliferation was analyzed by an MTT assay. […]
www.impactjournals.com/oncotarget/ Oncotarget, Supplementary Materials 2014 SUPPLEMENTARY FIGURES AND TABLE
Supplementary Figure S1: C96 inhibits multiple myeloma cell proliferation. MM cell lines were treated with C96 with indicated concentrations for 72 hrs, followed by MTT assay. […]

[5] = test system: OPM2 cells; assay: Cell migration analysis by the transwell assay; conditions: 6 hrs
Experimental: Next, we evaluated the effects of C96 on MM cell growth by measuring viable cells after starvation/IGF-1 stimulation in the presence of C96. As shown in Supplemental Figure 2A, IGF-1 stimulated MM cell growth, but it was suppressed by C96. We also examined the effects of C96 on MM cell migration upon IGF-1 stimulation.
This assay was performed as described previously. Briefly, MM cells OPM2, JJN3 and LP1 were serum starved overnight and then re-suspended in 70 μL of IMDM medium/0.5% fetal calf serum with or without C96. These cells were then loaded onto polycarbonate membranes (8-μm pore size) separating 2 chambers of a transwell (Corning Costar, Cambridge, MA). Medium/0.1% FCS (500 μL) containing agonist IGF-1 was added to the lower chamber of the Transwell cluster plates. After 6 hrs, cells migrating into the lower chamber were counted using a hemacytometer.
Supplementary Figure S2: C96 inhibits MM cell proliferation and migration in the presence of IGF-1. […] Cells were then incubated for another 24 hr, cell number was analyzed using MTT staining. […] Cells were loaded onto the upper chamber of a transwell, and the lower chamber was filled with IMDM containing agonist IGF-1.After 6 hrs, cells migrating into the lower chamber were counted using a hemacytometer. […]

[6] = test system: AKT phosphorylation in OPM2 cells; assay: IGF-1-stimulated AKT phosphorylation, immunoblotting; conditions: OPM2 cells (no PTEN), 2 hrs, IGF-1 15 min
Experimental: (§2) MM cell lines LP1 and OPM2 were starved overnight before being treated with C96 (0–100 μM) or S14161 (100 μM, a positive control) for a short period (2 hrs), followed by IGF-1 stimulation for 15 min. […] (Figure 2A). In LP1 cells, C96 at 25 μM and 50 μM led to a 50% and 90% decrease in AKT phosphorylation, respectively, in the 2-hr treatment. […] In the time-course study, AKT activation was suppressed by C96 at 50 μM within 0.5 hrs (30 min) (Figure 2B).
(§3) Figure 2 C96 inhibits AKT and mTOR signaling (A) LP1 and OPM2 were starved overnight, then treated with C96 at the indicated concentrations, or 100 μM of S14161 for 2 hrs, followed by IGF-1 (100 ng/mL) for 15 min. Cells were collected for the analysis of the expression of p-AKT and total AKT (T-AKT) by immunoblotting. (B) LP1 and OPM2 cells were starved overnight, then treated with C96 (50 μM) for different time periods, or S14161 (100 (μM) for 2 hrs, followed by IGF-1 (100 ng/mL) for 15 min. Cells were for the analysis of the expression of p-AKT and T-AKT by immunoblotting. (C) LP1, OPM2, and JJN3 cells were treated with C96 at the indicated concentrations for 24 hrs. Cell lysates were prepared and subjected to immunoblotting assay against p-AKT, AKT, p-mTOR, mTOR, p-4E-BP1, and 4E-BP1. GAPDH was used as a loading control.
(§4) Cells were treated with or without C96 for 24 hrs before being applied to lysate preparation in a lysis buffer (50 mM Tris-HCI, pH 7.4, 1% NP-40, 0.5% Na-deoxycholate, and 0.1% SDS, 150 mM NaCl, 2 mM EDTA, 2 mM Na3VO4, and 5 mM NaF). Equal amounts (30 μg) of total proteins were subjected to sodium dodecyl sulfate–polyacrylamide gel electrophoresis (SDS-PAGE) separation, followed by immunoblotting analyses with specific antibodies. Antibodies against PARP, caspase-3, AKT, p-AKT(S473), 4E-BP1, p-4E-BP1(S65), IGF-1R, p-IGF-1R, ERK(p42/p44), and p-ERK(p42/p44) were purchased from Cell Signaling Technologies. Antibodies against mTOR, p-mTOR(S2448), p70S6K, p-p70S6K(S424), and GAPDH were obtained from Abgent (Suzhou, China). Horseradish peroxidase-conjugate secondary antibodies against mouse or rabbit and GAPDH were purchased from Abgent. All immunoblotting signals were further analyzed with Quality One Quality One software (Bio-Rad, Berkeley, CA, USA).

[7] = test system: AKT phosphorylation in LP1 cells; assay: as above; conditions: for decrease in AKT phosphorylation: LP1 cells, 2-hr treatment, IGF-1 15 min
Experimental: as §2, §3, §4

O=C1NC(=O)C(=CC=Cc2cccs2)C(=O)N1 [C96, 5-(3-(2-thienyl)-2-propen-1-ylidene)-2,4,6(1H,3H,5H)-pyrimidinetrione]
Annexin V/PI flow cytometry quadrant percentages [1]: 42.12% and 21.89%
Annexin V/PI flow cytometry quadrant percentages [2]: 13.50% and 15.66%
Annexin V/PI flow cytometry quadrant percentages [3]: 4.28% and 1.91%
cell proliferation and viability (MTT) [4]: suppressed cell proliferation and reduced cell viability
migration through 8-micrometer transwell membrane in the presence of IGF-1 [5]: partly suppressed
AKT phosphorylation [6]: markedly decreased
time within which AKT activation was suppressed ([7]; 50 μM, time-course study, LP1 and OPM2 (Figure 2B)): ≤ 0.5 h
decrease in AKT phosphorylation ([7]; 25 μM): 50%
decrease in AKT phosphorylation ([7]; 50 μM): 90%
